Laboratory results as given in patent US20150094321A1, “COMBINATION” (GlaxoSmithKline LLC, priority 2009, published 2015).

What was measured:
Experiment in all cases: Cell line proliferation study
Assay type in all cases: cell-based, human
[1] = system: NCIH1792; conditions: NCIH1792, lung; for IC50: Homo sapiens, NCI-H1792, 72 hours, read-out: gIC50
Protocol: (§1) In a separate study, combination drug tests with Compounds A and B were conducted using a panel of cell lines from human colon cancers (n=26), lung cancers (n=15) and pancreatic cancers (n=6). Cell lines were obtained from commercial vendors (ATCC and DSMZ). Cell lines were grown in RPMI-1640 supplemented with 2 mM glutamine, 1 mM sodium pyruvate and 10% fetal bovine serum (except for Capan-1 and HuP-T4 which were grown with 20% fetal bovine serum) and maintained at 37° C. and 5% CO2 in a humid incubator. Assays were performed in 384 well microtiter plates with optimum seeding densities for each cell line.
(§2) The test compounds were prepared as 10 mM stocks in 100% DMSO. Further dilutions of the compounds were made in DMSO. Compound A was diluted horizontally in a separate 96 well microtiter plate in rows D-G using a 3-fold dilution series for 10 dilution points. Compound B was similarly diluted horizontally in a 96 well microtiter plate in rows B-E using a 3-fold dilution series for 10 dilution points.
(§3) The two compounds were combined using equal volumes from each drug plate into cell culture media. […] Both Compound A and Compound B were individually titrated in rows B and C (for Compound B) and rows F and G (for Compound A) of the merged drug plate.
(§4) A 1:10 dilution of the drugs was performed in cell culture media prior to addition to the cells.
(§5) The final concentration range for the test compounds was 250 to 0.013 nM for Compound A and 1000 to […] for Compound B. The positive control consisted of culture media with DMSO at 0.1% and cells. The negative control consisted of culture media with DMSO at 0.1%. The cell lines were incubated at 37° C., 5% CO2 in humid air for 72 hours. Cell proliferation was measured using the CellTiter Glo (Promega) reagent according to the manufacturer's protocol. The plates are treated with CellTiter Glo solution and are analyzed for RLU (relative light units) using a Molecular Devices SpectraMax M5 plate reader.
(§6) The percent intensity values were used in model 205 of XLfit (IDBS, Inc.) in Microsoft Excel to calculate gIC50 values using a 4 parameter logistical fit. The midpoint of the growth window (the gIC50) falls half way between the number of cells at the time of compound addition (T=0) and the growth of control cells treated with DMSO at 72 hrs. The number of cells at time zero (T0) is divided from the intensity value at the bottom of the response curve (Ymin) to generate a measure for cell death (Ymin/T0). A value below 1 for Ymin/T0 indicates stronger potency to induce cell death with the treatment when compared to higher values.
(§7) 1. Excess over Highest Single Agent (EOHSA)—This was calculated as described above (Borisy et al, 2003; FDA 21 CFR 300.50) 2. Bliss synergy—A second criterion often used to determine combination synergy is evaluating the excess inhibition over Bliss independence or “additivity” (Bliss and Mexico, 1939). The model assumes a combined response of the two compounds independently using the following:
(§8) Where Ea is the effect (or percent inhibition) of Compound A and Eb is the effect of Compound B. The resulting effect of the combination of the two compounds is compared to their predicted additivity by Bliss and a synergy score is generated for each dose along the response curve. 3. Combination Index (CI)—A third criterion traditionally used for the evaluation of synergy is Combination Index (CI) derived from the Chou and Talalay (1984). The following equation is a model used for compounds that behave with different mechanisms of action (mutually non-exclusive formula). This was calculated as described above.
(§9) For EOHSA and Bliss Synergy measures, a score is generated for each dose along the response curve. These scores reflect the percentage over the highest agent (EOHSA) or percentage greater than Bliss additivity, depending on which metric is being interpreted. […]

[2] = system: SW620; conditions: SW620, colon; for IC50: Homo sapiens, SW-620, 72 hours, read-out: gIC50
Protocol: as §1, §2, §3, §4, §5, §6, §7, §8, §9

[3] = system: NCIH2030; conditions: NCIH2030, lung; for IC50: Homo sapiens, NCI-H2030, 72 hours, read-out: gIC50
Protocol: as §1, §2, §3, §4, §5, §6, §7, §8, §9

[4] = system: YAPC; conditions: pancreas; for IC50: Homo sapiens, 72 hours, read-out: gIC50
Protocol: as §1, §2, §3, §4, §5, §6, §7, §8, §9

[5] = system: LS174T; conditions: colon; for IC50: Homo sapiens, 72 hours, read-out: gIC50
Protocol: as §1, §2, §3, §4, §5, §6, §7, §8, §9

| IC50 [2] [nM] | SMILES | IC50 [1] [nM] | Ymin/T0 [1] | Ymin/T0 [2] | IC50 [3] [nM] | Ymin/T0 [3] | IC50 [4] [nM] | Ymin/T0 [4] | IC50 [5] [nM] | Ymin/T0 [5] |
| --- | --- | --- | --- | --- | --- | --- | --- | --- | --- | --- |
| 15.2 | CC(=O)Nc1cccc(-n2c(=O)n(C3CC3)c(=O)c3c(Nc4ccc(I)cc4F)n(C)c(=O)c(C)c32)c1 [Compound A, N-{3-[3-cyclopropyl-5-(2-fluoro-4-iodo-phenylamino)-6,8-dimethyl-2,4,7-trioxo-3,4,6,7-tetrahydro-2H-pyrido[4,3-d]pyrimidin-1-yl]phenyl}acetamide] | 42 | 2.8 | 15.46 | > 250 | 55.8 | > 250 | 59.4 | 81.4 | 18.26 |
| > 1000 | Cn1ncc(Cl)c1-c1cc(C(=O)N[C@H](CN)Cc2ccc(F)c(F)c2)oc1Cl [Compound B, N-{(1S)-2-amino-1-[(3,4-difluorophenyl)methyl]ethyl}-5-chloro-4-(4-chloro-1-methyl-1H-pyrazol-5-yl)-2-furancarboxamide] | > 1000 | 26.0 | 76.65 | > 1000 | 40.7 | > 1000 | 55.2 | > 1000 | 19.70 |
